Results as given in patent US20240002326A1, “COMPOUNDS AND USE THEREOF IN METHODS OF TREATMENT” (The University of Queensland, priority 2016, published 2024).
Blank lines part the entries; values can stand above or below the compound they belong to.

Assays:
HEK293 = test: Cytotoxicity assay (Alamar blue), HEK293; format: cell-based; conditions: HEK293, 24 h
In short: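 COS-7 cells in DMEM with 10% FBS; HepG2 and HEK293 in DMEM with 1% FBS. After 24 h plating, serial compound dilutions (0.5% DMSO final) added for 24 h at 37° C. Viability from Alamar blue 5 μM, fluorescence 560/590 nm read after 2 h.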

scrambled DNA = test: Direct DNA-binding assay (SPR), scrambled DNA; conditions: biotinylated double-strand DNA on streptavidin chip
Experimental: Compounds were tested at a 1% v/v DMSO in HBS-EP buffer (10 mM HEPES, 150 mM NaCl, 3 mM EDTA, 0.005% v/v polysorbate 20, pH 7.4). The same buffer supplemented with 1% v/v DMSO was used as a mobile phase. DNA minor groove binder DAPI (4′,6-diamidino-2-phenylindole), DNA intercalator and minor groove binder actinomycin D, and DNA intercalator ethidium bromide were used as positive controls. Biotinylated (one tag per probe) double strand DNA probes were prepared using a standard annealing routine (5 min at 100° C., room temperature overnight and stored at −20° C.) of single strand anti-parallel DNA Probes purchased from Geneworks and were immobilized on CM5-SA streptavidin chips as per manufacturer's recommendations. […] All sample and control cycles were performed in triplicate. DMSO calibration was performed as per manufacturer's recommendations. After each injection, an extra flow system wash was performed with 50% v/v DMSO to avoid carryover. Experiments were run on a Biacore T200 (GE Healthcare, USA), with one flow cell kept as a reference.
From a molecular viewpoint, an inhibitor of SOX18-DNA binding could act either by interacting directly with the DNA, or the protein, or at the interface between protein and DNA. Binding of small molecules directly to the DNA, even though reported for other TFs (Leung et al., 2013), has the potential for unspecific DNA binding, leading to possible genotoxicity, mutagenicity, or carcinogenicity. For this reason, we developed a direct binding assays to determine whether the active compounds interact directly with DNA or protein. A surface plasmon resonance-based method was developed to analyse the binding of small molecules to biotinylated double stranded DNA immobilized on the surface of a streptavidin chip. The method measures the rate of binding (kon), dissociation (koff) and binding constant (KD), and was used to measure the binding to two different DNA sequences: SOX binding site consensus DNA, and scrambled DNA. Intercalating agents ethidium bromide and Actinomycin D, and the minor groove-binding agent 4′,6-diamino-2-phenylindole (DAPI) were used as positive controls for unselective DNA binding.

human COX2 = human COX2 (Homo sapiens (Human), UniProt P35354); test: COX2 enzymatic assay; format: biochemical; conditions: up to a concentration of 200 μM
Experimental: COX inhibition activity was measured using COX1 and COX2 inhibitor screening assay kits from Cayman Chemical Company (Ref #701090 and 701080). All compounds were tested in quadruplicate at a single 200 μM concentration in 2% v/v final DMSO. Compounds were preincubated with ovine COX1 or human COX2 at 37° C. for 10 min before incubation with COX substrate arachidonic acid for another 3 min. Reactions were stopped by addition of concentrated hydrochloric acid. Prostanoid standard curve was prepared and enzyme immunoassay performed as per manufacturer's description. […] Prostanoid standards values were plotted as logit (B/B0) versus log concentrations and fitted with linear regression using GraphPad Prism version 6.0. Standard curve linear fit was used to calculate each samples concentrations.

SOX18-MEF2C interaction = SOX18-MEF2C interaction (Homo sapiens (Human), UniProt P35713); test: ALPHAScreen SOX18-MEF2C protein-protein interaction; format: binding; conditions: read-out: SOX18-MEF2C interaction disruption IC50
Excerpt: Proteins were genetically encoded with enhanced GFP (GFP), mCherry and cMyc (myc) tags, and cloned into cell free expression Gateway destination vectors: N-terminal GFP tagged (pCellFree_G03), N-terminal Cherry-cMyc (pCellFree_G07) and C-terminal Cherry-cMyc tagged (pCellFree_G08) (Gagoski et al., 2015). Human RBPJ (BC020780) and MEF2C (BC026341) Open Reading Frames (ORFs) were sourced from the Human ORFeome collection, version 1.1 and 5.1, and the Human Orfeome collaboration OCAA collection (Open Biosystems), as previously described (Sierecki et al., 2013) and cloned at the ARVEC facility, UQ Diamantina Institute. […]
ALPHAScreen was performed as previously described (Sierecki et al., 2014, Sierecki et al., 2013). […] Percentage of interaction was calculated as: (I_cpd/I_DMSO)×100 from 3 independent experiments.
ALPHAScreen was performed as previously described (Sierecki et al., 2014, Sierecki et al., 2013), using the cMyc detection kit and Proxiplate-384 Plus plates (PerkinElmer). […] The ALPHAScreen signal was measured on an Envision Plate Reader (PerkinElmer), using manufacturer's recommended settings (λexc=680/30 nm for 0.18 s, λem=570/100 nm after 37 ms). […]
I is the highest signal level (top of the hook effect curve) and Ineg is the lowest (background) signal level. […] Percentage of interaction was calculated as: […]

human COX2, sequence (P35354 18-604): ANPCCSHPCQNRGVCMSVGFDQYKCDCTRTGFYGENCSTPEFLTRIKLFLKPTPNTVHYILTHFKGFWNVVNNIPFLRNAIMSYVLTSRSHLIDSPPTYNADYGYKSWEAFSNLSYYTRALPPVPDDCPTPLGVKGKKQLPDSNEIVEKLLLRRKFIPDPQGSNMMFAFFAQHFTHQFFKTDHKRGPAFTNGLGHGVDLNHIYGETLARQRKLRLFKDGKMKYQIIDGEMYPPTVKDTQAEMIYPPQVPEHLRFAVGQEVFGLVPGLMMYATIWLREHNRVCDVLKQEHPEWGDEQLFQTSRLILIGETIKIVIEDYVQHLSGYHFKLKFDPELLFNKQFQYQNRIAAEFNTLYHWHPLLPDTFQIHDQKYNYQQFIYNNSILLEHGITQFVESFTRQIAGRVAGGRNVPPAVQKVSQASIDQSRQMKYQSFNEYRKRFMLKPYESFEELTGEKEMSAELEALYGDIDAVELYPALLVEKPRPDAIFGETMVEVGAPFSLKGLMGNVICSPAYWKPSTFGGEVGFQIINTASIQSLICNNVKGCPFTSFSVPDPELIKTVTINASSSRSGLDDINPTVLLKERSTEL
SOX18-MEF2C interaction, sequence (P35713 whole entry): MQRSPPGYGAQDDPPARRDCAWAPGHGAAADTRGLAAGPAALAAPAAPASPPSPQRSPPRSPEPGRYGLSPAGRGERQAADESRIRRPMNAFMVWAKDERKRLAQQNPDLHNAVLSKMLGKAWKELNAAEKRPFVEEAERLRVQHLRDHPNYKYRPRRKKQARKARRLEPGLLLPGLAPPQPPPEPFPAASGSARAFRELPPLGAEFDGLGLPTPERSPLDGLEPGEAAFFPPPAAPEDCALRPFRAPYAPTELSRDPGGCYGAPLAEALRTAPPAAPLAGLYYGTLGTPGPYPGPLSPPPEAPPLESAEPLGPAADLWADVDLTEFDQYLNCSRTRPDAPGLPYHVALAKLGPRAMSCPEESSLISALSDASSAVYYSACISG

Compound: CCN(CC)C(=O)c1c(O)cc(O)cc1CCc1ccc2ccccc2c1 [Sm26, N,N,diethyl-2,4-hydroxy-6-(2-(naphthalen-2-yl)ethyl)benzamide]
- CC50 (HEK293): 23.5 µM

- binding to scrambled DNA (SPR) (scrambled DNA): do not bind
Compound: O=C(O)c1c(O)cccc1COCCc1ccccc1 [Sm5]
- COX-2 inhibitory activity (human COX2): None of the SOX18 inhibitor display any COX-1 or COX-2 inhibitory activity

Compound: O=C(O)c1ccccc1Nc1cccc(C(F)(F)F)c1 [Flufenamic acid, reference compound]
- IC50 (SOX18-MEF2C interaction): 29.1 µM
